Earlier results as cited in publication PMC4203335 (International Journal of Oncology, 2014).

Assays:
[1] = mice
[2] = test system: Burkitt lymphoma xenografts
[3] = test system: N-Myc-induced neuroblastoma

## O=c1[nH]c(=S)[nH]c(-c2ccccc2)c1Cc1c(O)ccc2ccccc12 [Cambinol]
[1]
  tolerability: well tolerated
[2]
  growth of xenografts: significantly inhibited

## CN(C)CCCCC(=O)Nc1ccc(NC(=S)NC(=O)c2ccc(C(C)(C)C)cc2)cc1 [Tenovin-6]
melanoma
  tumorigenesis: suppressed tumorigenesis
[3]
  tumorigenesis: suppressed tumorigenesis

## CC(C)=CCC[C@]1(C)[C@@H](CC=C(C)C)C[C@@]2(CC=C(C)C)C(=O)[C@]1(C(=O)C(C)C)C(=O)C(CC=C(C)C)=C2OCC(=O)O [aristoforin]
SIRT1
  SIRT1 inhibitory activity: have SIRT1 inhibitory activity

## guttiferone G
SIRT1
  SIRT1 inhibitory activity: have SIRT1 inhibitory activity

## inauhzin
Colon xenograft
  xenograft growth: reduced colon xenograft growth
